{"source": "patent US8703725B2", "about": "“Nutritional compositions” (NESTEC S.A., priority 2002, dated 2014)", "test_system": "muscle protein kinetics", "assay": "Protein kinetics in muscle of rabbits infused with amino acid mixtures (surgical stress model)", "type": "in vivo, New Zealand white rabbits", "conditions": "rabbit, infusion, means ± SEM", "method": "To investigate the optimal mixture of free amino acids for stimulating net muscle protein synthesis a series of studies in New Zealand white rabbits weighing about 4.5 kg was performed. Net muscle protein balance was quantified by a technique analogous to the one used for human studies as described in Biolo et al, J Parent Enteral Nutr 16:305-315, 1992, which is hereby incorporated by reference, except that leg blood flow was measured by flow probe. This animal model is designed to represent a stress model induced by the surgical procedures needed to collect the samples and therefore is considered to be a good model for a seriously-ill […] patient. Different amino acid mixtures were infused into the rabbits, and the response of muscle quantified.\nThe groups were as follows:\nAA group: A balanced AA solution (10% TRAVASOL®) containing all amino acids (27.3 umol·kg^−1·min^−1)\nEAA group: Only essential amino acids (27.3 umol·kg^−1·min^−1)\nLeu (25%)+AA group: Leucine was added to the balanced AA solution to account for 25% of total nitrogen and infused at the same total nitrogen group as others (27.3 umol·kg^−1·min^−1)\nLeu (35%)+AA group: Same as above, except Leu comprised 35% of total\nLeu only: Leucine only at 8.3 umol·kg·min", "data": [{"smiles": "CC(C)C[C@H](N)C(=O)O", "note": "[Leu alone, Leucine]", "values": [{"measurement": "Protein kinetics in muscle: Breakdown", "value": "9.2 ± 0.5", "unit": "µmol/kg/min"}, {"measurement": "Protein kinetics in muscle: Net balance", "setting": "*p<0.05 vs control", "value": "-2.6 ± 0.3", "unit": "µmol/kg/min"}, {"measurement": "Protein kinetics in muscle: Synthesis", "setting": "*p<0.05 vs control", "value": "6.6 ± 0.7", "unit": "µmol/kg/min"}]}]}
